Experimental data: ChEMBL document CHEMBL4828744, “Design, synthesis and biological evaluation of pyridinylmethylenepiperidine derivatives as potent 5-HT1F receptor agonists for migraine therapy” (Eur J Med Chem, 2021)

What was measured:
[1] = species on record: Homo sapiens; test: Selectivity ratio of IC50 for human 5HT3 receptor to IC50 for human 5HT1F receptor
[2] = AUC(0 to t) in Sprague-Dawley rat at 5 mg/kg, ig measured for 24 hrs by LC-MS/MS analysis; format: ADME, organism-based; set-up: time 24 hrs, dose 5 mg/kg; details: in vivo, po
[3] = Cmax in monkey at 1 mg/kg, ig administered for 28 days by LC-MS/MS analysis; format: ADME, organism-based, Macaca mulatta; set-up: route intragastric, dose 1 mg/kg, time 28 day; details: rhesus monkey, in vivo, po
[4] = Toxicity in Sprague-Dawley rat assessed as effect on food intake at 150 mg/kg/day, ig administered for 28 days; format: organism-based; details: in vivo, po, 672 h, time 28 day
[5] = Cmax in monkey at 5 mg/kg, ig administered for 28 days by LC-MS/MS analysis; format: ADME, organism-based, Macaca mulatta; set-up: route intragastric, time 28 day, dose 5 mg/kg; details: rhesus monkey, in vivo, po
[6] = Volume of distribution at steady state in Sprague-Dawley rat at 1 mg/kg, iv measured for 24 hrs by LC-MS/MS analysis; format: ADME, organism-based; details: in vivo, read-out: Vdss
[7] = Toxicity in ig dosed monkey administered for 28 days; format: organism-based, Macaca mulatta; details: rhesus monkey, in vivo, po; time 28 day
[8] = biological target: T1, 5-hydroxytryptamine receptor 1F (Homo sapiens, UniProt P30939); test: Binding affinity to human 5HT1F receptor
T1 sequence (P30939 whole entry): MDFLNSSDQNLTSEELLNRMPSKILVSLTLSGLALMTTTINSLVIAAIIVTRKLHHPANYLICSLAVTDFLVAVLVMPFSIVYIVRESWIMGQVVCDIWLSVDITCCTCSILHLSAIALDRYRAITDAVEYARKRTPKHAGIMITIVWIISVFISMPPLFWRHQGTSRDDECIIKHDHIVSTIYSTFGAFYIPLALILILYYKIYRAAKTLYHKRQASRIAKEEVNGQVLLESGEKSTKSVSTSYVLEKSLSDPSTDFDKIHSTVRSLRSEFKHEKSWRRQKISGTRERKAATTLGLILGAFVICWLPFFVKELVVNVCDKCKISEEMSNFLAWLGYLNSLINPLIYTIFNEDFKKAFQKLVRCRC

[9] = biological target: 5-HT1B/5-HT1F (Homo sapiens) (UniProt P30939+P28222); test: Selectivity ratio of IC50 for human 5HT1B receptor to IC50 for human 5HT1F receptor; format: protein assay
[10] = AUC (0 to 24hrs) in monkey at 1 mg/kg, ig by LC-MS/MS analysis; format: ADME, organism-based, Macaca mulatta; set-up: time < 24 hr, route intragastric, dose 1 mg/kg; details: rhesus monkey, in vivo, po
[11] = Toxicity in ig dosed Sprague-Dawley rat administered for 28 days; format: organism-based; details: in vivo, po, time 28 day
[12] = Toxicity in Sprague-Dawley rat assessed as effect on body weight at 150 mg/kg/day, ig administered for 28 days; format: organism-based; details: in vivo, po, 672 h, time 28 day
[13] = Half life in Sprague-Dawley rat at 5 mg/kg, ig measured for 24 hrs by LC-MS/MS analysis; format: ADME, organism-based; details: in vivo, po
[14] = Half life in Sprague-Dawley rat at 1 mg/kg, iv measured for 24 hrs by LC-MS/MS analysis; format: ADME, organism-based; details: in vivo
[15] = biological target: T2, 5-hydroxytryptamine receptor 3A (Homo sapiens, UniProt P46098); test: Binding affinity to human 5HT3 receptor
T2 sequence (P46098 whole entry): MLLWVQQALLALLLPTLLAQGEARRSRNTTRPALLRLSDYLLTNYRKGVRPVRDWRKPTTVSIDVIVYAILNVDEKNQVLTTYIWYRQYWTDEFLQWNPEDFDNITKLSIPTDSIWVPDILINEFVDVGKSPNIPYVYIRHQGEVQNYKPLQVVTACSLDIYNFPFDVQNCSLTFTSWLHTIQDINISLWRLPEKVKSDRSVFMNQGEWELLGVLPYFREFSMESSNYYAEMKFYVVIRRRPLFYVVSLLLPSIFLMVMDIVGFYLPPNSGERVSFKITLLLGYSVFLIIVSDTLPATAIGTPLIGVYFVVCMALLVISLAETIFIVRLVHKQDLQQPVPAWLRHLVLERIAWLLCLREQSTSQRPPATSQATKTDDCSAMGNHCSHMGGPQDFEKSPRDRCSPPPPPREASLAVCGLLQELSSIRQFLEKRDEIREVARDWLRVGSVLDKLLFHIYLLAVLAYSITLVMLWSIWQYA

[16] = Cmax in Sprague-Dawley rat at 15 mg/kg, ig administered for 28 days by LC-MS/MS analysis; format: ADME, organism-based; set-up: route intragastric, dose 15 mg/kg, time 28 day; details: in vivo, po
[17] = Toxicity in NewZealand rabbit Saphenous vein rings assessed as induction of vasoconstriction at 0.01 to 100 uM; format: tissue-based, Oryctolagus cuniculus; details: dose 0.01-100 µM

Chain of 5-HT1B/5-HT1F (Homo sapiens) (P28222 whole entry, looked up, one chain of several): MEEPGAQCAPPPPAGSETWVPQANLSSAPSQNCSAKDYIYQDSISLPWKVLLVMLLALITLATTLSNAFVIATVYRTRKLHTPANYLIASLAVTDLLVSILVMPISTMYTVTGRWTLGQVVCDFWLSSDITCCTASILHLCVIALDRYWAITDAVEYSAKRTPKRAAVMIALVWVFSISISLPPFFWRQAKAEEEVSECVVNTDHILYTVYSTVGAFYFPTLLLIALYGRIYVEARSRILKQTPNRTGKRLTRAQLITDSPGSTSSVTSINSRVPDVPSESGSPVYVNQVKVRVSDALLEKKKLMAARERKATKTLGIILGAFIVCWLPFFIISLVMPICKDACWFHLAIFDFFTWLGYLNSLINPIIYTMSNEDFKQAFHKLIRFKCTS

With `CN1CCC(=C(F)c2cccc(NC(=O)c3c(F)cc(F)cc3F)n2)CC1` the Ratio IC50 [1] was > 10000, the AUC(0-t) at 24 h [2] was 404 ng·h/mL and the Cmax [3] was 764 ng/mL. For the same compound, the Activity [4] was “Non-Toxic”, the Cmax [5] was 3410 ng/mL and the Vd [6] was 12.8 L/kg. The NOAEL at 672 h [7] was 5 mg/kg/day, the IC50 [8] was 0.32 nM and the Ratio IC50 [9] was > 10000. For the same compound, the AUC(0-t) at 24 h [10] was 3200 ng·h/mL, the NOAEL at 672 h [11] was 50 mg/kg/day and the Activity [12] was “Non-Toxic”. The half-life [13] was 2.95 h, the half-life [14] was 1.33 h and the IC50 [15] was > 10000 nM. The Cmax [16] was 160 ng/mL and the Activity [17] was “Non-Toxic”.
